Measurements: PMC9737664, “Human Milk Oligosaccharide 2′-Fucosyllactose Inhibits Ligand Binding to C-Type Lectin DC-SIGN but Not to Langerin” (International Journal of Molecular Sciences, 2022)

Molecular target: T1, DC-SIGN (Homo sapiens, UniProt Q9NNX6)
T1 construct: gene CD209; DC-SIGN-Fc: extracellular domain fused to the Fc portion of human IgG1
T1 sequence (Q9NNX6 59-404 limits assumed): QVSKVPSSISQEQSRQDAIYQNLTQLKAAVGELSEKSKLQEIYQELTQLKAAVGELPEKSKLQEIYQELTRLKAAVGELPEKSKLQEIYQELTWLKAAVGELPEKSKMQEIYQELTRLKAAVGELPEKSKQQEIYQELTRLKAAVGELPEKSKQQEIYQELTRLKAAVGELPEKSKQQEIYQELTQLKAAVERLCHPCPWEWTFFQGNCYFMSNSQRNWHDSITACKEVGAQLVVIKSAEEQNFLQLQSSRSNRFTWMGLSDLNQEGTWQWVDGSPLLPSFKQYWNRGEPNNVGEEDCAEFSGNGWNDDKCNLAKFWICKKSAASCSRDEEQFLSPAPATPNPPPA
Assay: Solid-phase competition ELISA of DC-SIGN-Fc against PAA-fucose and PAA-Le^b; also Le^b bead competition on DC-SIGN expressing cells ([…])
Format: binding

Solid-phase competition ELISA of DC-SIGN-Fc against PAA-fucose and PAA-Le^b; als: ~ 2 mM
Compound: C[C@@H]1O[C@@H](O[C@H]2[C@H](O[C@H]3[C@H](O)[C@@H](O)C(O)O[C@@H]3CO)O[C@H](CO)[C@H](O)[C@@H]2O)[C@@H](O)[C@H](O)[C@@H]1O (stereo partly shown) [2′-FL, 2′-Fucosyllactose]
